Laboratory results reported in publication PMC6274495, “Purification and Characterization of a White Laccase with Pronounced Dye Decolorizing Ability and HIV-1 Reverse Transcriptase Inhibitory Activity from Lepista nuda” (Molecules, 2016).
Counter-ions that a name gives are not always drawn.

System: T1, L. nuda laccase
T1 construct: gene EC 1.10.3.2; native, purified from culture broth (fraction SU3); 56 kDa monomer; white laccase
Experiment: spectrophotometric oxidation, Lineweaver-Burk plot
Format: biochemical, Collybia nuda
Settings: HAc-NaAc buffer pH 4.6, 25 °C

CCn1c(=NN=c2sc3cc(S(=O)(=O)O)ccc3n2CC)sc2cc(S(=O)(=O)O)ccc21 [ABTS, 2,7-azinobis(3-ethylbenzothia-zolone-6-sulfonic acid) diammonium salt]
Km: 190 µM
